Source: patent US20090298866A1, “Indole Compounds” (priority 2006, published 2009)
Where a name gives a salt, the structure may show the parent alone.

Experiments:
human EP3 receptor = target: T1, human EP3 receptor (Homo sapiens, UniProt P43115); test: human EP3 calcium mobilisation assay; assay type: cell-based; conditions: heading: functional pKi; human EP3, CHO-K1 cells, PGE2-induced calcium mobilisation; averages of a number of experiments
T1 construct: expressed in transfected cells; host or cells: CHO-K1
T1 sequence (P43115 1-390): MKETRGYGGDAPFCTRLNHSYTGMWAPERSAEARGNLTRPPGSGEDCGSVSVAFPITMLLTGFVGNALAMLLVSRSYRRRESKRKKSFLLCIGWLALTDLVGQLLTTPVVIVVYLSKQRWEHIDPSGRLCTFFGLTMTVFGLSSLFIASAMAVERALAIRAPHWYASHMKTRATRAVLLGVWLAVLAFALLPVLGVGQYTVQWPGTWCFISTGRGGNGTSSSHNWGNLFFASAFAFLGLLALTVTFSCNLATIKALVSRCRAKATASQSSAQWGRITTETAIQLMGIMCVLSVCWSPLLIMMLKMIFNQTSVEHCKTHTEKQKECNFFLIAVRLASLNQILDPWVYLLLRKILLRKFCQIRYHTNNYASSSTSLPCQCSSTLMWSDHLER
Experimental: (§1) Briefly, the antagonist properties of compounds are assessed by their ability to inhibit the mobilisation of intracellular calcium ([Ca^2+]i) in response to activation of EP1 or EP3 receptors by the natural agonist hormone prostaglandin E2 (PGE2). Increasing concentrations of antagonist reduce the amount of calcium that a given concentration of PGE2 can mobilise. The net effect is to displace the PGE2 concentration-effect curve to higher concentrations of PGE2. The amount of calcium produced is assessed using a calcium-sensitive fluorescent dye such as Fluo-4, AM and a suitable instrument such as a Fluorimetric Imaging Plate Reader (FLIPR). Increasing amounts of [Ca^2+]i produced by receptor activation increase the amount of fluorescence produced by the dye and give rise to an increasing signal. The signal may be detected using the FLIPR instrument and the data generated may be analysed with suitable curve-fitting software.
(§2) The human EP1 or EP3 calcium mobilisation assay (hereafter referred to as ‘the calcium assay’) utilises Chinese hamster ovary-K1 (CHO-K1) cells into which a stable (pCIN; BioTechniques 20 (1996): 102-110) vector containing either EP1 or EP3 cDNA has previously been transfected. Cells are cultured in suitable flasks containing culture medium such as DMEM:F-12 supplemented with 10% v/v foetal calf serum, 2 mM L-glutamine, 0.25 mg/ml geneticin, 100 μM flurbiprofen and 10 μg/ml puromycin.
(§3) For assay, cells are harvested using a proprietary reagent that dislodges cells such as Versene. Cells are re-suspended in a suitable quantity of fresh culture media for introduction into a 384-well plate. Following incubation for 24 hours at 37° C. the culture media is replaced with a medium containing Fluo-4 and the detergent pluronic acid, and a further incubation takes place. Concentrations of compounds are then added to the plate in order to construct concentration-effect curves. This may be performed on the FLIPR in order to assess the agonist properties of the compounds. Concentrations of PGE2 are then added to the plate in order to assess the antagonist properties of the compounds.
(§4) The data so generated may be analysed by means of a computerised curve-fitting routine. The concentration of compound that elicits a half-maximal inhibition of the calcium mobilisation induced by PGE2 (pIC50) may then be estimated.

human EP1 receptor [1] = target: T2, human EP1 receptor (Homo sapiens, UniProt P34995); test: human EP1 calcium mobilisation assay; assay type: cell-based; conditions: human EP1, CHO-K1 cells, PGE2-induced calcium mobilisation; averages of a number of experiments; read-out: functional pKi (converted)
T2 construct: expressed in transfected cells; host or cells: CHO-K1
T2 sequence (P34995 1-402): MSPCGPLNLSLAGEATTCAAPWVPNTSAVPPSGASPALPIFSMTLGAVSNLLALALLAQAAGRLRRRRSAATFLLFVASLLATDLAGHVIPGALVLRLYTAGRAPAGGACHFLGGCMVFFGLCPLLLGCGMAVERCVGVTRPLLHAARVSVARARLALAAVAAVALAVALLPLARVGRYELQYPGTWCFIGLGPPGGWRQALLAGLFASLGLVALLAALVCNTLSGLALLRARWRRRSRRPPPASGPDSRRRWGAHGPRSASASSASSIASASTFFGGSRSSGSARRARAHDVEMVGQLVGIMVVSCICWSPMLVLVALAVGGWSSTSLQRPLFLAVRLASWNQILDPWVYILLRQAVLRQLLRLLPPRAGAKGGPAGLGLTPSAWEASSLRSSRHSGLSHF
Experimental: as §1, §2, §3, §4

human EP1 receptor [2] = target: T2, human EP1 receptor; test: Binding assay for the human prostanoid EP1 receptor (competition with [3H]-PGE2); conditions: binding to human EP1 receptor, CHO-K1 membranes, [3H]-PGE2 3 nM; averages of a number of experiments
Experimental: Competition assay using [^3H]-PGE2.
Compound potencies are determined using a radioligand binding assay. In this assay compound potencies are determined from their ability to compete with tritiated prostaglandin E2 ([^3H]-PGE2) for binding to the human EP1 receptor. This assay utilises Chinese hamster ovary-K1 (CHO-K1) cells into which a stable vector containing the EP1 cDNA has previously been transfected. Cells are cultured in suitable flasks containing culture medium such as DMEM:F-12 supplemented with 10% v/v foetal calf serum, 2 mM L-glutamine, 0.25 mg/ml geneticin, 10 μg/ml puromycin and 10 μM indomethacin.
Cells are detached from the culture flasks by incubation in calcium and magnesium free phosphate buffered saline containing 1 mM disodium ethylenediaminetetraacetic acid (Na2EDTA) and 10 μM indomethacin for 5 min. The cells are isolated by centrifugation at 250×g for 5 mins and suspended in an ice cold buffer such as 50 mM Tris, 1 mM Na2EDTA, 140 mM NaCl, 10 μM indomethacin (pH 7.4). The cells are homogenised using a Polytron tissue disrupter (2×10 s burst at full setting), centrifuged at 48,000×g for 20 mins and the pellet containing the membrane fraction is washed (optional) three times by suspension and centrifugation at 48,000×g for 20 mins. The final membrane pellet is suspended in an assay buffer such as 10 mM 2-[N-morpholino]ethanesulphonic acid, 1 mM Na2EDTA, 10 mM MgCl2 (pH 6). Aliquots are frozen at −80° C. until required.
For the binding assay the cell membranes, competing compounds and [^3H]-PGE2 (3 nM final assay concentration) are incubated in a final volume of 100 μl for 30 min at 30° C. All reagents are prepared in assay buffer. Reactions are terminated by rapid vacuum filtration over GF/B filters using a Brandell cell harvester. The filters are washed with ice cold assay buffer, dried and the radioactivity retained on the filters is measured by liquid scintillation counting in Packard TopCount scintillation counter.
The data are analysed using non linear curve fitting techniques to determine the concentration of compound producing 50% inhibition of specific binding (IC50).

[3] = system: rodent model of post-operative pain; conditions: Anesthesia and Analgesia 2001, 92, 233-238; cited from earlier work
[4] = system: rat model of chronic constriction injury; conditions: Anesthesia and Analgesia 2001, 93, 1012-7; cited from earlier work

Row | SMILES | Ki (human EP3 receptor) [µM] | IC50 (human EP1 receptor [2]) [µM] | further results
1 | CC(C)Cc1cn(-c2nc(NC(=O)c3cccnc3)cs2)c2cc(Cl)ccc12 [Example 6, N-[2-(6-Chloro-3-isobutyl-1H-indol-1-yl)-1,3-thiazol-4-yl]nicotinamide] | > 3.16 | – | –
2 | CC(C)Cc1cn(-c2nc(NC(=O)c3ccc(CO)cc3)cs2)c2cc(Cl)ccc12 [Example 9, N-[2-(6-Chloro-3-isobutyl-1H-indol-1-yl)-1,3-thiazol-4-yl]-4-(hydroxymethyl)benzamide] | > 3.16 | – | –
3 | CCCNC(=O)Nc1csc(-n2cc(CC(C)C)c3ccc(Cl)cc32)n1 [Example 10, N-[2-(6-Chloro-3-isobutyl-1H-indol-1-yl)-1,3-thiazol-4-yl]-N′-propylurea] | > 3.16 | – | –
4 | CC(C)Cc1cn(-c2nc(C(=O)Nc3ccncc3)cs2)c2cc(Cl)ccc12 [Example 25, 2-[6-Chloro-3-isobutyl-1H-indol-1-yl]-N-4-pyridinyl-1,3-thiazole-4-carboxamide] | > 3.16 | – | –
5 | CC(C)Cc1cn(-c2nc(C(=O)Nc3c(F)cccc3F)cs2)c2cc(Cl)ccc12 [Example 33, 2-[6-Chloro-3-isobutyl-1H-indol-1-yl]-N-(2,6-difluorophenyl)-1,3-thiazole-4-carboxamide] | > 3.16 | ≤ 0.1 | Ki (human EP1 receptor [1]): ≤ 0.1 µM
6 | CC(C)Cc1cn(-c2nc(-c3nc4ccccc4[nH]3)co2)c2cc(Cl)ccc12 [Example 36, 2-{2-[6-Chloro-3-isobutyl-1H-indol-1-yl]-1,3-oxazol-4-yl}-1H-benzimidazole hydrochloride] | > 3.16 | ≤ 0.1 | –
7 | CC(C)Cc1cn(-c2nc(-c3nc4cc(CO)ccc4[nH]3)cs2)c2cc(Cl)ccc12 [Example 45, (2-{2-[6-Chloro-3-isobutyl-1H-indol-1-yl]-1,3-thiazol-4-yl}-1H-benzimidazol-5-yl)methanol hydrochloride] | > 3.16 | ≤ 0.1 | –
8 | CC(C)Cc1cn(-c2nc(-c3nc4c(CO)cccc4[nH]3)cs2)c2cc(Cl)ccc12 [Example 46, (2-{2-[6-Chloro-3-isobutyl-1H-indol-1-yl]-1,3-thiazol-4-yl}-1H-benzimidazol-4-yl)methanol] | > 3.16 | – | Ki (human EP1 receptor [1]): ≤ 0.1 µM
9 | CC(C)Cc1cn(-c2nc(-c3nnc[nH]3)cs2)c2cc(Cl)ccc12 [Example 54, 3-[2-(6-Chloro-3-isobutyl-1H-indol-1-yl)-1,3-thiazol-4-yl]-4H-1,2,4-triazole] | > 3.16 | – | –
10 | Cc1nnc(-c2csc(-n3cc(CC(C)C)c4ccc(Cl)cc43)n2)[nH]1 [Example 55, 3-[2-(6-Chloro-3-isobutyl-1H-indol-1-yl)-1,3-thiazol-4-yl]-5-methyl-4H-1,2,4-triazole] | > 3.16 | ≤ 0.1 | –
11 | CC(=O)OCc1ccc(C(=O)Nc2csc(-n3cc(CC(C)C)c4ccc(Cl)cc43)n2)cc1 [Example 56, {4-[({2-[6-Chloro-3-(2-methylpropyl)-1H-indol-1-yl]-1,3-thiazol-4-yl}amino)carbonyl]phenyl}methyl acetate] | > 3.16 | – | –
12 | Cc1cc(Cl)ccc1S(=O)(=O)NC[C@H]1C2CCC(CC2)[C@@H]1/C=C\CCCC(=O)O [ONO-8711] | – | – | mechanical hyperalgesia [3]: inhibits mechanical hyperalgesia; hyperalgesia and allodynia [4]: reduces hyperalgesia and allodynia
